Assays:
rat esophagus = experiment: Rat esophageal relaxation; assay type: in vivo; details: cumulative i.d. dosing, anesthetized rats
[1] = test system: canine antrum, duodenum, and jejunum; experiment: Dog gastrointestinal contractility; assay type: in vivo; details: oral, conscious fasted dogs
Rat Ca2+ channel (N) = Rat Ca2+ channel (N) (Rattus norvegicus, UniProt Q02294); experiment: biochemical; assay type: binding
Human M3 = Human M3 (Homo sapiens, UniProt P20309); experiment: Radioligand binding: Human M3
Human β2 = Human β2 (Homo sapiens, UniProt P07550); experiment: Radioligand binding: Human β2
Rat AMPA = experiment: Radioligand binding: Rat AMPA; details: [3H]-AMPA 8 nM
Rat 5-HT1B = Rat 5-HT1B (Rattus norvegicus, UniProt P28564); experiment: Radioligand binding: Rat 5-HT1B
Bovine 5-HT1D = Bovine 5-HT1D (Bos taurus, UniProt F1MMU1); experiment: Radioligand binding: Bovine 5-HT1D
Human motilin = Human motilin (Homo sapiens, UniProt O43193); experiment: Radioligand binding: Human motilin
Human VPAC2 (VIP2) = Human VPAC2 (VIP2) (Homo sapiens, UniProt P41587); experiment: Radioligand binding: Human VPAC2
Rat α2 (non-selective) = experiment: Radioligand binding: Rat α2; details: [3H]-RX 821002 0.5 nM
Rat BB (non-selective) = experiment: Radioligand binding: Rat BB; details: [125I]-[Tyr4]-bombesin 0.01 nM
Rat NT (non-selective) = experiment: Radioligand binding: Rat NT; details: [125I]-Tyr3-neurotensin 0.05 nM
Human 5-HT transporter = Human 5-HT transporter (Homo sapiens, UniProt P31645); experiment: Radioligand binding: Human 5-HT transporter
[2] = target: Rat galanin (non-selective); experiment: Radioligand binding: Rat galanin; details: [125I]-galanin 0.05 nM
[3] = target: Rat Ca2+ channel (L, verapamil site); experiment: Radioligand binding: Rat Ca2+ channel; details: [3H]-(−)D 888 0.5 nM

Human VPAC2 (VIP2), sequence (P41587 24-438): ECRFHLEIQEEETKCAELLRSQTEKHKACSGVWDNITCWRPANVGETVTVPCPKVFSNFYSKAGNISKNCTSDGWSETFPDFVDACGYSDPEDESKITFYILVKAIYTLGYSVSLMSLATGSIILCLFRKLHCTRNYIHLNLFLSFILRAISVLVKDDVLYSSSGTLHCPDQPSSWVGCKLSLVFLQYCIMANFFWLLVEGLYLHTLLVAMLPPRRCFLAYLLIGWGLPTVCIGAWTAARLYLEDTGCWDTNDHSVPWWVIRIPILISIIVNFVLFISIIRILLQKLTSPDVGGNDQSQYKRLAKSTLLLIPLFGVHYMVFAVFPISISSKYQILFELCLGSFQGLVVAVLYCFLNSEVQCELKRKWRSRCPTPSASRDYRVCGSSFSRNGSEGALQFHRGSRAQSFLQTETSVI
Bovine 5-HT1D, sequence (F1MMU1 1-377): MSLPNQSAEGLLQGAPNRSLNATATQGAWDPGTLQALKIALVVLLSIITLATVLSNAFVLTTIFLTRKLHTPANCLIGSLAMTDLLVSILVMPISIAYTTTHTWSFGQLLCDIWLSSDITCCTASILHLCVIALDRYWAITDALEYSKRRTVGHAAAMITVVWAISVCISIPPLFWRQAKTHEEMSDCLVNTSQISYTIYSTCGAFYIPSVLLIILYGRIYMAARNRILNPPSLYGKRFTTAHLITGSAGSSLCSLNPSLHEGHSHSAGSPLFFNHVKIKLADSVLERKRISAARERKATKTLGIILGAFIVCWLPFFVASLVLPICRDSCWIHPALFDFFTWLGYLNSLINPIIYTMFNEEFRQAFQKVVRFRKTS
Rat 5-HT1B, sequence (P28564 whole entry): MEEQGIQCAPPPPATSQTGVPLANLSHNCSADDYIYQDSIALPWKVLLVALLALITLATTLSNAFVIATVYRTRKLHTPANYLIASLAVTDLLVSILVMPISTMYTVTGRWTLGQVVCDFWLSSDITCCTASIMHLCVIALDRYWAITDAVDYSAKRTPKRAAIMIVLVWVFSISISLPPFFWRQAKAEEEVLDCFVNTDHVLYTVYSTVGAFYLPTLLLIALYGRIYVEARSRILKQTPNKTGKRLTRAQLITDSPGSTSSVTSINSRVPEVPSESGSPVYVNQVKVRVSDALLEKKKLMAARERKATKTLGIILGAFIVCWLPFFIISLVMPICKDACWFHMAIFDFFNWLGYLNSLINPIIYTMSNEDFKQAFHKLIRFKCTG
Human motilin, sequence (O43193 whole entry): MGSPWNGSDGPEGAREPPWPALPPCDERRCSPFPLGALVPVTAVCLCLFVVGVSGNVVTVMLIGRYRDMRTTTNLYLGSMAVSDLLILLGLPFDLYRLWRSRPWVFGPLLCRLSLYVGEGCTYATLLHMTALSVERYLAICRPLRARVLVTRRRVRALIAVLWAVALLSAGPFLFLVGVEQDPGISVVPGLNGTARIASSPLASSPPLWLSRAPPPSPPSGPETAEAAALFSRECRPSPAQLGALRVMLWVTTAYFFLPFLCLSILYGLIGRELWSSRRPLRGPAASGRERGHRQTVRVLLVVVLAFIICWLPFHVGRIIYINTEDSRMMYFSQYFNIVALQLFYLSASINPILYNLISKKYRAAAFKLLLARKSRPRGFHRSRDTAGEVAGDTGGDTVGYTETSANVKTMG
Human 5-HT transporter, sequence (P31645 whole entry): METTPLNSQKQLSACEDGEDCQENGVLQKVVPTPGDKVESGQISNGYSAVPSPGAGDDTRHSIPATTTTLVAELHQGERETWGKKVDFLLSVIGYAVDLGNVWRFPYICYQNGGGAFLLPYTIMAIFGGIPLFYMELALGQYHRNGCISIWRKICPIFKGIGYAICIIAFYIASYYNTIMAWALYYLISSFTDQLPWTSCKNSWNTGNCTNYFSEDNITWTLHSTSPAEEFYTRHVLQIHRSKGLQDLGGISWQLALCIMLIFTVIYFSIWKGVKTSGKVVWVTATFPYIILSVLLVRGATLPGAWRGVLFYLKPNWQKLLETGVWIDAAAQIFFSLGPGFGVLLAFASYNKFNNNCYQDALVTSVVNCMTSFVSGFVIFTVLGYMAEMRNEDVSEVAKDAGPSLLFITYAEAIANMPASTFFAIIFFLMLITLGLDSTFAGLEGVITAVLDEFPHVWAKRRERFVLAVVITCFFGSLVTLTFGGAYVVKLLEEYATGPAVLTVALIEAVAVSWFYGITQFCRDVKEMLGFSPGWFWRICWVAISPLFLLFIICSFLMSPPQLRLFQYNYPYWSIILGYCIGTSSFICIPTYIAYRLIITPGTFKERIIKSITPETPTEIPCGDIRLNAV
Human β2, sequence (P07550 whole entry): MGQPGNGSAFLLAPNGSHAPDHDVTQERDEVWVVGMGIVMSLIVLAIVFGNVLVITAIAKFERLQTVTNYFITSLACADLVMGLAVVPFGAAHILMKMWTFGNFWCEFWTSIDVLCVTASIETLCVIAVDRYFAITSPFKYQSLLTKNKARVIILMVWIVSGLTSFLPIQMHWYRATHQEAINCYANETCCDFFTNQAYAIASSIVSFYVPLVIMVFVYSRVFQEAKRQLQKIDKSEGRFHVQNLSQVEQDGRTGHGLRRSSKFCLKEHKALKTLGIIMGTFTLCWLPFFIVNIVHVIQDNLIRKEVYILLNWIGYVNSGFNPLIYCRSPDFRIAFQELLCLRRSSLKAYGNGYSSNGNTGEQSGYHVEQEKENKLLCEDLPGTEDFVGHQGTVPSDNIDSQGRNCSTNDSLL
Human M3, sequence (P20309 whole entry): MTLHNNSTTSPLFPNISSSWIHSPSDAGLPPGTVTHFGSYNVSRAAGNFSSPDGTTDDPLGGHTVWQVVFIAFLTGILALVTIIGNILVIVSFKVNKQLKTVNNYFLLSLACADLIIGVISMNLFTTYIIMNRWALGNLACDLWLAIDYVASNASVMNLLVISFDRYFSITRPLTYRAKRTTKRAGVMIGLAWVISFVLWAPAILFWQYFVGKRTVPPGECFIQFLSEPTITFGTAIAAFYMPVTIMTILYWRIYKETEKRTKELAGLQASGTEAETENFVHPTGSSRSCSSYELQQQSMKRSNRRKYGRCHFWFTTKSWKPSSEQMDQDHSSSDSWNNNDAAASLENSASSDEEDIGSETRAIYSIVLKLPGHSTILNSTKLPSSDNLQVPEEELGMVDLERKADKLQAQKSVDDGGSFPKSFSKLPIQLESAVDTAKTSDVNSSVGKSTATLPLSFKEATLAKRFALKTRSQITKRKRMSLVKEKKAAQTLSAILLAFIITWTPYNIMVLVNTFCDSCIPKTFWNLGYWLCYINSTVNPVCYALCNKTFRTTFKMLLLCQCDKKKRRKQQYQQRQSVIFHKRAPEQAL

For `COC(=O)N1CCC(CN2CCC(CNC(=O)c3cccc4[nH]c(C(C)C)nc34)CC2)CC1` [TD-8954, 4-(4-{[(2-isopropyl-1H-benzoimidazole-4-carbonyl)amino]methyl}-piperidin-1-ylmethyl)piperidine-1-carboxylic acid methyl ester], the “dose associated with a relaxation response of 0.1 mm” value (rat esophagus) was 0.23 mg/kg, the “onset of contractile activity after dosing” value [1] was ≤ 10 min and the “effect on contractility in the antrum, duodenum, and jejunum” value ([1]; TD-8954 0.01 and 0.03 mg/kg, tegaserod 0.1 and 0.3 mg/kg) was “increases in contractility”. For the same compound, the Ki (Rat Ca2+ channel (N)) was > 1 µM, the Ki (Human M3) was > 10 µM and the Ki (Human β2) was > 1 µM. The pKi (Rat AMPA) was <6, the “% Inhibition of specific binding (1 μM)” value (Rat AMPA; TD-8954 1 μM) was −4% and the Ki (Rat 5-HT1B) was > 1 µM. For the same compound, the Ki (Bovine 5-HT1D) was > 1 µM, the Ki (Human motilin) was > 1 µM and the Ki (Human VPAC2 (VIP2)) was > 1 µM. The inhibition at 1 µM (Human VPAC2 (VIP2); read-out: % Inhibition of specific binding (1 μM)) was -19%, the pKi (Rat α2 (non-selective)) was <6 and the pKi (Rat BB (non-selective)) was <6. For the same compound, the “% Inhibition of specific binding (1 μM)” value (Rat BB (non-selective); TD-8954 1 μM) was 4%, the pKi (Rat NT (non-selective)) was <6 and the “% Inhibition of specific binding (1 μM)” value (Rat NT (non-selective); TD-8954 1 μM) was 4%. The Ki (Human 5-HT transporter) was > 1 µM, the pKi [2] was <6 and the “% Inhibition of specific binding (1 μM)” value ([2]; TD-8954 1 μM) was 1%. The pKi [3] was <6.

Source: article PMC3108484 (Frontiers in Pharmacology, 2011)
